Laboratory results from patent US7572818B2, “2-pyridylethylbenzamide derivative” (Bayer Cropscience S.A., priority 2002, dated 2009).

Assays:
Septoria tritici = assay: In vivo test of activity on Septoria tritici (wheat septoria disease); settings: 500 g/ha, preventive spray 24 h before inoculation
Protocol: In Vivo Test of Activity on Septoria tritici (Wheat Septoria Disease
(§1) An aqueous solution of the active material to be tested is prepared at a concentration of 2 g/l by grinding in solution 1 or solution 2:
(§2) • Water • Tween 80 diluted to 10% in water: 5 μl/mg of active material • Clay in a sufficient amount for active material+clay to equal 100 mg; Solution 2
(§3) Concentrated solution containing surfactants and adjuvants conventionally used: 200 μl/mg of active material.
(§4) The aqueous solution is diluted with water so as to obtain the desired concentration.
Wheat plants of the Scipion variety are sown in a 50/50 pozzolan/peat substrate and maintained at 12° C. The treatment is carried out at the 1-leaf stage (10 cm) by spraying the aqueous suspension. The untreated control plants are sprayed with water.
24 hours after treatment, the plants are inoculated by spraying a solution of Septoria tritici spores (500 000 spores/ml) from a 7-day culture.
The wheat plantlets are then maintained at 18-20° C. in a humid atmosphere for 72 hours, and then at 90% relative humidity. The effectiveness of the products is evaluated relative to the control plants, 21 to 28 days after the contamination.
(§5) The effectiveness of the molecules is estimated, at 500 g/ha, 250 g/ha or 330 ppm, by the percentage of control relative to untreated plants. Under these conditions, good effectiveness is defined as more than 80% effectiveness. Average effectiveness is defined as an effectiveness between 50 and 80%. Poor effectiveness is defined as an effectiveness between 10 and 50% and zero effectiveness is defined as less than 10% effectiveness.

Pyrenophora teres = assay: In vivo test of activity on Pyrenophora teres (barley net blotch); settings: preventive spray 24 h before inoculation
Protocol: In Vivo Test of Activity on Pyrenophora teres (Barley Net Blotch)
as §1, §2, §3, §4
Barley plants of the Express variety are sown in a 50/50 pozzolan/peat substrate and maintained at 12° C. The treatment is carried out at the 1-leaf stage (10 cm) by spraying the aqueous suspension. The untreated control plants are sprayed with water.
24 hours after treatment, the plants are inoculated by spraying a solution of Pyrenophora teres spores (10 000 spores/ml) originating from a 10-day culture.
The barley plants are then maintained at 18° C. in a humid atmosphere. The effectiveness of the products is evaluated relative to the control plants after eight to fifteen days of incubation.
as §5

Botrytis cinerea = assay: In vivo test of activity on Botrytis cinerea on cucumber; settings: preventive spray 24 h before inoculation
Protocol: In Vivo Test of Activity on Botrytis cinerea on Cucumber
as §1, §2, §3, §4
Cucumbers of the Marketer variety are sown in a 50/50 pozzolan/peat substrate and maintained at 18-22° C. The treatment is carried out by spraying the aqueous suspension. The untreated control plants are sprayed with water.
24 hours after treatment, the plants are inoculated by spraying a solution of Botrytis cinerea spores (150 000 spores/ml) originating from a 15-day culture.
The cucumber plants are then maintained at 11-15° C. in a humid atmosphere. The effectiveness of the products is evaluated relative to the control plants after seven to eight days of incubation.
as §5

Alternaria brassicae = assay: In vivo test of activity on Alternaria brassicae (crucifer black spot) on radish; settings: preventive spray 24 h before inoculation
Protocol: In Vivo Test of Activity on Alternaria brassicae (Crucifer Black Spot)
as §1, §2, §3, §4
Radishes of the Pernot variety are sown in a 50/50 pozzolan/peat substrate and maintained at 18-22° C. The treatment is carried out by spraying the aqueous suspension. The untreated control plants are sprayed with water. 24 hours after treatment, the plants are inoculated by spraying a solution of Alternaria brassicae spores (40 000 spores/ml) originating from a 12-day culture.
The radish plants are then maintained at 18-20° C. in a humid atmosphere. The effectiveness of the products is evaluated relative to the control plants after seven to eight days of incubation.
as §5

Measured: effectiveness (percentage of control relative to untreated plants)

O=C(NCCc1ncc(C(F)(F)F)cc1Cl)c1ccccc1Cl [Compound A-2]
good to average: Septoria tritici | Pyrenophora teres; 500 g/ha | Botrytis cinerea; 500 g/ha | Alternaria brassicae; 500 g/ha

O=C(NCCc1ncc(C(F)(F)F)cc1Cl)c1ccccc1F [Compound A-4]
good to average: Septoria tritici | Pyrenophora teres; 500 g/ha | Alternaria brassicae; 500 g/ha

O=C(NCCc1ncc(C(F)(F)F)cc1Cl)c1ccc(F)cc1F [Compound A-5]
good to average: Septoria tritici | Pyrenophora teres; 500 g/ha

O=C(NCCc1ncc(C(F)(F)F)cc1Cl)c1ccc(Cl)cc1Cl [Compound A-6]
good to average: Septoria tritici | Pyrenophora teres; 500 g/ha | Alternaria brassicae; 500 g/ha

COc1ccccc1C(=O)NCCc1ncc(C(F)(F)F)cc1Cl [Compound A-7]
good to average: Septoria tritici | Pyrenophora teres; 500 g/ha | Botrytis cinerea; 500 g/ha | Alternaria brassicae; 500 g/ha

COc1ccc(C(=O)NCCc2ncc(C(F)(F)F)cc2Cl)cc1 [Compound A-16]
good to average: Septoria tritici

CCc1ccc(C(=O)NCCc2ncc(C(F)(F)F)cc2Cl)cc1 [Compound A-21]
good to average: Septoria tritici

CCCc1ccc(C(=O)NCCc2ncc(C(F)(F)F)cc2Cl)cc1 [Compound A-22]
good to average: Septoria tritici

CCCCc1ccc(C(=O)NCCc2ncc(C(F)(F)F)cc2Cl)cc1 [Compound A-23]
good to average: Septoria tritici

O=C(NCCc1ncc(C(F)(F)F)cc1Cl)c1ccccc1Br [Compound A-46]
good to average: Pyrenophora teres; 250 g/ha | Pyrenophora teres; 330 ppm | Botrytis cinerea; 250 g/ha | Botrytis cinerea; 330 ppm | Alternaria brassicae; 250 g/ha | Alternaria brassicae; 330 ppm

O=C(NCCc1ncc(C(F)(F)F)cc1Cl)c1ccc(F)cc1C(F)(F)F [Compound A-73]
good to average: Pyrenophora teres; 250 g/ha | Pyrenophora teres; 330 ppm | Botrytis cinerea; 250 g/ha | Botrytis cinerea; 330 ppm | Alternaria brassicae; 250 g/ha | Alternaria brassicae; 330 ppm

O=C(NCCc1ncc(C(F)(F)F)cc1Cl)c1c(F)cccc1C(F)(F)F [Compound A-173]
good to average: Pyrenophora teres; 330 ppm | Botrytis cinerea; 330 ppm | Alternaria brassicae; 250 g/ha | Alternaria brassicae; 330 ppm

O=C(NCCc1ncc(C(F)(F)F)cc1Cl)c1c(F)cccc1I [Compound A-174]
good to average: Pyrenophora teres; 330 ppm | Botrytis cinerea; 330 ppm | Alternaria brassicae; 330 ppm

O=C(NCCc1ncc(C(F)(F)F)cc1Cl)c1ccccc1OC(F)F [Compound A-187]
good to average: Pyrenophora teres; 330 ppm | Botrytis cinerea; 330 ppm | Alternaria brassicae; 330 ppm
